Experimental data taken from patent US6808721B2, “Methods for coating pharmaceutical core tablets” (Boehringer Ingelheim Pharmaceuticals, Inc., priority 2001, dated 2004).
Converted amounts (≈) assume the structure as drawn.

Assays:
[1] = system: proinflammatory cytokines, such as tumor necrosis factor (TNF) and interleukin-1 (IL-1); details: disclosed in PCT/US99/29165 and U.S. Pat. No. 6,319,921; cited from earlier work
[2] = pKa of the drug; format: physicochemical
Experimental: (§1) At least seven polymorphs of BIRB 796 have been isolated (the melt point of the drug is about 152° C. and the pKa about 6.1). The polymorphs generally exist in the form of elongated needles. BIRB 796 is relatively poorly soluble in physiological environments. The solubility of polymorphic BIRB 796 drug substance (Form IV) has been determined to be about 0.5 ug/ml at pH 7.4 and about 10 mg/ml at pH 2.0.

[3] = Discoloration on exposure to light or heat; format: physicochemical; details: in the presence of light
Description: It has been discovered that BIRB 796 may lead to discoloration of a core tablet in which it is contained when that core tablet is exposed to light or heat. […] Tablet coatings preferably comprise 2-3%, more preferably about 2.5%, by weight of the BIRB 796 tablet. Masking of the color change may also be used to create a pharmaceutically acceptable dosage form, as for example, mixing dry colorants (including yellow no. 10 iron oxide lake) into the formulation.

[4] = Solubility of BIRB 796 drug substance; format: physicochemical; details: for solubility: polymorphic drug substance (Form IV)
Experimental: as §1

- pKa [2]: ~6.1
- solubility ([4]; aqueous buffer, pH 7.4): ~0.5 µg/mL (≈ 0.000948 mM)
- aqueous solubility ([4]; in words): poor aqueous solubility
- solubility ([4]; simulated gastric fluid, pH 2.0): ~10000 µg/mL (≈ 19 mM)
SMILES: Cc1ccc(-n2nc(C(C)(C)C)cc2NC(=O)Nc2ccc(OCCN3CCOCC3)c3ccccc23)cc1 [BIRB 796, 1-(5-tert-butyl-2-p-tolyl-2H-pyrazol-3-yl)-3-[4-(2-morpholin-4-yl-ethoxy)-naphthalen-1-yl]-urea]
- inhibitory activity with respect to proinflammatory cytokines [1]: unexpectedly significant inhibitory activity
- discoloration [3]: tendency to discolor in the presence of light
